Reference: patent US20070231256A1, “Compositions and methods for detecting and treating tumors containing acidic areas” (priority 2006, published 2007)
Several values for one entry are separate records, joined by “and”; a condition that tells them apart may be missing. Equal values may be shown once.

Assays:
tumors = details: tumor-bearing mice, reduction of about 0.3 pH units in the tumors; cited from earlier work
[1] = Henderson-Hasselbalch calculation of percent in acid form; details: calculated; for Percent in Acid Form at pH 6.4: pH 6.4 (acidic areas of tumors); for Percent in Acid Form at pH 7.4: pH 7.4 (normal tissues)
Description: The interstitial space in normal tissues is generally at or very near pH 7.4, and in acidic areas of tumors a pH of around 6.4 is fairly typical or readily achievable by known methods. If one knows the pKa value of an acid substance (pKa is the pH at which the acid moiety is half ionized in aqueous solution) one can use the Henderson-Hasselbalch equation (pH=pKa+log [A−]/[HA]) to calculate what fraction of that substance will be in the acid form at any selected pH. […] It should be noted that for carboxyl-containing substances whose acid forms are water soluble, the pKa and pS values are quite similar.
In these calculations the Henderson-Hasselbalch equation was used to calculate the relative concentration of salt and acid forms at a given pH for a substance having acid moieties with a specified pKa or pS value. Then a binomial expansion was used to calculate the concentration of the all-acid form for an onco tool containing 2 or 3 pH-switch components.

physchem = experiment: physchem
Protocol: In regard to initial testing, a simple pH titration of the prospective pH-switch structure in physiological saline is fast and easy and provides useful information about the key properties one is attempting to achieve.
Typically new structures that may be suitable as advanced pH-switch components are first assessed for their pS value. This entails preparing the sodium salt form of the structure and dissolving it at a concentration of 20 milliMolar in 15 ml of 0.15 Molar NaCl (deareated to remove CO2). […] A plot of pH versus volume of added HCl affords the pS value.
The sodium salts of compounds shown in FIG. 11a (designed to form internal acid-specific H-bond) and 11b (designed to form non-acid-specific H-bonds) were titrated in aqueous solution.

Row | Structure (SMILES) | improvement in tumor growth delay (tumors) [fold] | Percent in Acid Form at pH 6.4 [1] [%] | Percent in Acid Form at pH 7.4 [1] [%] | pKa (physchem) | minimum of first derivative of the titration curve (pH) (physchem; titrated in water / aqueous solution)
1 | O=C(O)CCCc1ccc(N(CCCl)CCCl)cc1 [Chlorambucil] | 1.7 | 20.1 | 2.4 | – | –
2 | CCCCCCCC(=O)O [octanoic acid] | – | – | – | 5.5 | –
3 | CCC(=O)O [propionic acid] | – | 2.9 | 0.3 | – | –
4 | CCC[N+]1([O-])CCC(C(=O)O)CC1 (stereo not shown) [structure iii in FIG. 15b, N-oxide of N-propylisonipocotic acid] | – | – | – | – | ~4.0 and ~5.6
